Results published in US20250129092A1, “COMPOUNDS USEFUL IN MODULATION OF AHR SIGNALLING” (JAGUAHR THERAPEUTICS PTE LTD, priority 2021, published 2025).

Each compound was assayed against T1, AhR (Homo sapiens, UniProt P35869) (assay: AhR antagonism in U937 cells (Promega P450-Glo assay)). Settings: CYP1A1 activity readout (Luciferin-CEE), head names VAF347, average, read-out: U937 Antagonist pIC50-VAF347: av. pIC50 (converted).
T1 sequence (P35869 11-848): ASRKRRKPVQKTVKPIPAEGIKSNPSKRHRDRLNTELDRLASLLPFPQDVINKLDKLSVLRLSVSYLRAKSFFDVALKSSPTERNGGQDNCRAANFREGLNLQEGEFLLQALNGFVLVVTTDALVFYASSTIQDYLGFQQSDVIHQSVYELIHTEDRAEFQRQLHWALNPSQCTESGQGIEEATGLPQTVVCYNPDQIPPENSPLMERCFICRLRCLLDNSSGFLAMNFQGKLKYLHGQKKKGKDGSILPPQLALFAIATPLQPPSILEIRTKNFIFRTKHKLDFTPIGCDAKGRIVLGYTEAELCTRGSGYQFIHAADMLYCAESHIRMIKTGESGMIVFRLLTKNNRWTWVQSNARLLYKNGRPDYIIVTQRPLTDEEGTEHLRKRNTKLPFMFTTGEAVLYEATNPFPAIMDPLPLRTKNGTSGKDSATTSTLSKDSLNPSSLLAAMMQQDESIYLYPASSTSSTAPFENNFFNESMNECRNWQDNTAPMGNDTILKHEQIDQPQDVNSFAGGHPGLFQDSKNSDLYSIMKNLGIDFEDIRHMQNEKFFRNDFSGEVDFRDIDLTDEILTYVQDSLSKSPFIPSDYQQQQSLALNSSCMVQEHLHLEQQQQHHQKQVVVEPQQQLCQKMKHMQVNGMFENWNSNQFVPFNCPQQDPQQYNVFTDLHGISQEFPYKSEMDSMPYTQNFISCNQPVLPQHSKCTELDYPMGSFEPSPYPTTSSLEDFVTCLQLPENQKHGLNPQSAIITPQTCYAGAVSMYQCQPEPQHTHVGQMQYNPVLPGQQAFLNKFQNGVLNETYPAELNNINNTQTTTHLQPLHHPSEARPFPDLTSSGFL
Format: cell-based
Parameters: endogenous in cells; host or cells: U937 cells
Protocol: In Vitro Assay 1: AhR Antagonism in U937 Cells (Promega P450-Glo™ Assay)
AhR antagonism was assessed in LJ937 cells (myeloid lineage cell line derived from a human histiocytic lymphoma). Ligand binds the AhR in the cytoplasm, and the AhR-ligand complex translocates to the nucleus and forms a heterodimer with AhR nuclear translocator (Arnt). This complex binds the xenobiotic response element (XRE) in the 5′ upstream region of the CYP1A1 promoter, enhancing CYP1A1 expression. CYP1A1 activity is subsequently determined by assessing the conversion of Luciferin-CEE to luciferin, which in turn reacts with luciferase to produce light. The amount of light produced is directly proportional to cytochrome P450 activity. U937 cells in Ultraculture serum free media (Lonza) were plated at 100,000 cells per well in a round bottom 96 well tissue culture plate. […] The plates were then placed in an incubator at 37° C., ≥85% humidity, 5% CO2 for 24 hrs. After aspiration of the supernatant the CYP1A1 substrate Luciferin-CEE ([Final] 83 μM) was added and incubated for 3 hrs before the reaction was stopped by adding luciferin detection reagent and luminescence was read after 20 minutes.
Work on `Cc1ccc(-c2nc3c(c(NCCc4c[nH]c5ccccc45)n2)OCCN3)cn1` [Example 15, N-[2-(1H-indol-3-yl)ethyl]-2-(6-methyl-3-pyridyl)-7,8-dihydro-6H-pyrimido[5,4-b][1,4]oxazin-4-amine] yielded an IC50 of 89.1 nM.
For `Cc1ncc(-c2nc3c(c(NCCc4c[nH]c5ccccc45)n2)OCCN3)cc1F` [Example 16, 2-(5-fluoro-6-methyl-3-pyridyl)-N-[2-(1H-indol-3-yl)ethyl]-7,8-dihydro-6H-pyrimido[5,4-b][1,4]oxazin-4-amine], the IC50 was 33.1 nM.
`O=c1ccc(-c2nc3c(c(NCCc4c[nH]c5ccccc45)n2)OCCN3)c[nH]1` [Example 18, 5-[4-[2-(1H-indol-3-yl)ethylamino]-7,8-dihydro-6H-pyrimido[5,4-b][1,4]oxazin-2-yl]-1H-pyridin-2-one] was tested, and the IC50 was 447 nM.
`COc1ncc(C)cc1-c1nc2c(c(NCCc3c[nH]c4ccccc34)n1)OCCN2` [Example 23, N-[2-(1H-indol-3-yl)ethyl]-2-(2-methoxy-5-methyl-3-pyridyl)-7,8-dihydro-6H-pyrimido[5,4-b][1,4]oxazin-4-amine] showed an IC50 of 457 nM.
`CC1(C)COc2c(NCCc3c[nH]c4ccccc34)nc(-c3cncc(F)c3)nc2N1` [Example 31, 2-(5-fluoro-3-pyridyl)-N-[2-(1H-indol-3-yl)ethyl]-7,7-dimethyl-6,8-dihydropyrimido[5,4-b][1,4]oxazin-4-amine] gave an IC50 of 16.2 nM.
`Cc1ncc(-c2nc(N[C@@H]3CCc4[nH]c5ccccc5c4C3)c3c(n2)N(S(C)(=O)=O)CCO3)s1` [Example 39, 8-methylsulfonyl-2-(2-methylthiazol-5-yl)-N-[(3R)-2,3,4,9-tetrahydro-1H-carbazol-3-yl]-6,7-dihydropyrimido[5,4-b][1,4]oxazin-4-amine] was tested, and the IC50 was 89.1 nM.
Work on `O=c1[nH]cccc1-c1nc2c(c(NCCc3c(Cl)[nH]c4ccccc34)n1)OCCN2` [Example 40, 3-(4-((2-(2-chloro-1H-indol-3-yl)ethyl)amino)-7,8-dihydro-6H-pyrimido[5,4-b][1,4]oxazin-2-yl)pyridin-2(1H)-one] yielded an IC50 of 15.1 nM.
Work on `Cc1[nH]c2c(F)cccc2c1CCNc1nc(-c2ccc[nH]c2=O)nc2c1OCCN2` [Example 41, 3-[4-[2-(7-fluoro-2-methyl-1H-indol-3-yl)ethylamino]-7,8-dihydro-6H-pyrimido[5,4-b][1,4]oxazin-2-yl]-1H-pyridin-2-one] yielded an IC50 of 19.5 nM.
In the case of `Cc1[nH]c2c(F)cc(F)cc2c1CCNc1nc(-c2ccc[nH]c2=O)nc2c1OCCN2` [Example 42, 3-(4-((2-(5,7-difluoro-2-methyl-1H-indol-3-yl)ethyl)amino)-7,8-dihydro-6H-pyrimido[5,4-b][1,4]oxazin-2-yl)pyridin-2-ol], the IC50 is reported as 209 nM.
With `Oc1ncccc1-c1nc2c(c(NCCc3c[nH]c4cc(OC(F)(F)F)ccc34)n1)OCCN2` [Example 43, 3-(4-((2-(6-(trifluoromethoxy)-1H-indol-3-yl)ethyl)amino)-7,8-dihydro-6H-pyrimido[5,4-b][1,4]oxazin-2-yl)pyridin-2(1H)-one] the IC50 was 7.08 nM.
Work on `COC[C@@H]1COc2c(NCCc3c[nH]c4cc(F)ccc34)nc(-c3ccc[nH]c3=O)nc2N1` [Example 47, (R)-3-(4-((2-(6-fluoro-1H-indol-3-yl)ethyl)amino)-7-(methoxymethyl)-7,8-dihydro-6H-pyrimido[5,4-b][1,4]oxazin-2-yl)pyridin-2(1H)-one] yielded an IC50 of 3.24 nM.
In the case of `Cc1ncc(-c2nc3c(c(N[C@@H]4CCc5[nH]c6ccccc6c5C4)n2)OCCN3)s1` [Example 51, 2-(2-methylthiazol-5-yl)-N-[(3R)-2,3,4,9-tetrahydro-1H-carbazol-3-yl]-7,8-dihydro-6H-pyrimido[5,4-b][1,4]oxazin-4-amine], the IC50 is reported as 204 nM.
For `Cc1nc(C)c(-c2nc3c(c(NCCc4c[nH]c5ccccc45)n2)OCCN3)s1` [Example 52, 2-(2,4-dimethylthiazol-5-yl)-N-[2-(1H-indol-3-yl)ethyl]-7,8-dihydro-6H-pyrimido[5,4-b][1,4]oxazin-4-amine], the IC50 was 17.8 nM.
